Reference: patent US5411969A, “Antihyperlipidemic/antioxidant dihydroquinolines” (Bristol-Myers Squibb Company, priority 1993, dated 1995)

What was measured:
LDL = test: In vitro LDL oxidation (Cu++), conjugated diene formation; assay type: biochemical, rabbit; conditions: for LDL Oxd. Inhib. mean lag ratio: 10 μM, rabbit plasma LDL, Cu++, treated/control lag time
[1] = tested on: human hepatoma HepG2 cells; test: HepG2 cell culture model: cholesterol synthesis by 14C-acetate incorporation; assay type: cell-based; conditions: 4 h incubation, read-out: Cholesterol Biosynthesis
Experimental: (§1) The human hepatoma HepG2 cell culture model was employed to compare the intrinsic activities of the representative compounds of the present invention relative to the tocotrienols. HepG2 cells were incubated with the indicated compounds for 4 hours at 10 μM. Cholesterol synthesis was assayed by ^14 C-acetate incorporation over the final hour of incubation, and HMG-CoA reductase suppression (specific activity) was assayed in the microsomal fraction isolated from parallel cultures at the end of the 4 hour incubation.

HMG-CoA reductase [2] = test: HepG2 cell culture model: HMG-CoA reductase suppression (specific activity, microsomal fraction); assay type: cell-based, human; conditions: 10 μM, 4 h incubation, HepG2 cells
Experimental: as §1

[3] = In vivo hypocholesterolemic activity in normocholesterolemic chickens: total serum cholesterol and HDL/LDL cholesterol pools; set-up: species or system chicken; conditions: male chickens, orally dosed for 4 weeks at 4 mg/kg/day
Experimental: (§2) Hypocholesterolemic activity was evaluated for representative compounds of the present invention using γ-tocotrienol as a control in normocholesterolemic chickens. Newborn male chicks (6-10 for each group) were raised on a standard corn-soybean-based control diet for two weeks and then were switched to either control or experimental diets for four weeks. Drug treatment consisted of the addition of test compound to the corn-soybean-based. At the end of the feeding period, all the birds were fasted (about 36 hours) and refed (about 48 hours) to induce cholesterolgenic enzymes prior to sacrifice. The specific activity of HMG-CoA reductase, total serum cholesterol levels, and HDL/LDL cholesterol pools were examined (Table II).
(§3) Effects of Compounds of the present invention on Lipid
(§4) Parameters in Male Chickens
(§5) Orally dosed for 4-weeks at 4 mg/kg/day

HMG-CoA reductase [4] = test: In vivo evaluation in normocholesterolemic chickens: specific activity of HMG-CoA reductase; set-up: species or system chicken; conditions: male chickens, orally dosed for 4 weeks at 4 mg/kg/day
Experimental: as §2, §3, §4, §5

[5] = Redox potential by cyclic voltammetry; assay type: physicochemical; conditions: for Oxd. Potential: cyclic voltammetry
Description: One method for the measurement of general antioxidant capacity is stopped-flow kinetic analysis. (Mukai, et al., Bull. Chem. Soc. Jpn., 59: 3113-3116 (1986); Mukai, et al., J. Org. Chem., 54: 557-560 (1989); Mukai, et al. J. Org. Chem., 53: 430-432 (1988)). This is a sophisticated setup wherein, one measures radical transfer from a stable radical, (for example 2,6-di-tert-butyl-4-(4-methoxyphenyl)phenoxy), to a test compound spectrophotometrically as a function of time. […] (Mukai, et al., Bull. Chem. Soc. Jpn., 59: 3113-3116 (1986); Mukai, et al., J. Org. Chem., 54: 557-560 (1989); Mukai, et al. J. Org. Chem., 53: 430-432 (1988)). Voltammetry has been used by Moldeus et al. to study the antioxidant capacity of structurally related dibenzo[1,4]dichalcogenines as inhibitors of lipid peroxidation. (Cotgreave, et al., Biochem. Pharm., 42: 1481-85 (1991)). In their case, a strong correlation between voltammetric potential and the ability to inhibit lipid peroxidation was observed.
(Mukai, et al., J. Org. Chem., 53: 430-432 (1988); Mukai, et al., J. Org. Chem., 54: 552-556 (1989); Mukai, et al., J. Org. Chem., 56: 4188-4192 (1991)).

hamster LDL = test: Ex vivo LDL lipid peroxidation assay in hamsters (Cu++ oxidation; conjugated dienes or lipid peroxides); conditions: 17 days; for Conj. Dienes lag ratio: treated/control
Experimental: As a secondary screen, test compounds are evaluated ex vivo for their oral effectiveness to inhibit LDL oxidation. […] Again, the conjugated diene assay is used to assess lipid peroxidation.
Hamsters (n=6 per group) were placed on an atherogenic diet (0.4% cholesterol+10% vitamin E stripped corn oil), and were orally dosed for 17 days with the indicated compounds at 75 mpk/day. The resistance of hamster LDL to copper-dependent oxidation in vitro was determined by conjugated dienes or lipid peroxides.

cholesterol fed rabbits = conditions: cited from earlier work
[6] = in vivo; cited from earlier work

Row | SMILES | LDL Oxd. Inhib. mean lag ratio (LDL) | activity at 10 µM [1] | Tot.-C [3] | lipid peroxide formation in LDL, % of Control, 1.5 h (hamster LDL; 50 mg/kg/d oral) | lipid peroxide formation in LDL, % of Control, 3.0 h (hamster LDL; 50 mg/kg/d oral) | Conj. Dienes lag ratio (hamster LDL; 50 mg/kg/d oral) | further results
1 | Cc1cc(C(C)(C)C)c(O)c(C(C)(C)C)c1 [Butylatedhydroxytoluene] | 1.38 | – | – | – | – | – | –
2 | CC(C)=CCC/C(C)=C/CC/C(C)=C/CCCOc1ccc2c(c1)C(C)=CC(C)(C)N2 [Compound 4, 1,2-Dihydro-2,2,4-Trimethyl-6-[(5,9,13-Trimethyl-4(E),8(E),1 2-tetradecatrienyl)oxy]Quinoline] | 1.80 | 48% | 65.9 % of Control | 3 % of Control | 31 % of Control | 1.57 | HMGR Suppression (HMG-CoA reductase [2]): 40% of Control; HDL-C [3]: 89.0 % of Control; LDL-C [3]: 45.3 % of Control; HMGR (HMG-CoA reductase [4]): 83.8 % of Control; Oxd. Potential [5]: 0.47 Volts; oxidation potential compared with standard reference agents ([5]; over standard reference agents, in words): lower oxidation potential; LDL protective capacity compared with standard reference agents (LDL; in vitro and ex vivo (Tables III, IV), in words): superior LDL protective capacity
3 | CC(C)=CCC/C(C)=C/CC/C(C)=C/CCCSc1ccc2c(c1)C(C)=CC(C)(C)N2 [Compound 8, 1,2-Dihydro-2,2,4-Trimethyl-6-[(5,9,13-Trimethyl-4(E),8(E),1 2-tetradecatrienyl)thio]Quinoline] | 1.64 | 3% | 100.9 % of Control | – | – | – | HDL-C [3]: 98.2 % of Control; LDL-C [3]: 99.1 % of Control; Oxd. Potential [5]: 1.20 Volts
4 | CC(C)=CCC/C(C)=C/CC/C(C)=C/CCCCc1ccc2c(c1)C(C)=CC(C)(C)N2 [Compound 11, 1,2-Dihydro-2,2,4-Trimethyl-6-[6,10,14-Trimethyl-5(E),9(E), 13-Pentadecatrienyl]Quinoline] | – | 89% | – | – | – | – | –
5 | CC1=CC(C)(C)Nc2ccc(OCCC/C=C(\C)CCc3cccc(C(F)(F)F)c3)cc21 [Compound 18] | – | 42% | 61.2 % of Control | – | – | – | HDL-C [3]: 93.8 % of Control; LDL-C [3]: 26.0 % of Control; HMGR (HMG-CoA reductase [4]): 66.4 % of Control
6 | CCOc1ccc2c(c1)C(C)=CC(C)(C)N2 [ETHOXYQUIN] | 1.21 | – | – | – | – | – | lipid peroxide formation in LDL, % of Control, 1.5 h (hamster LDL; 75 mg/kg/d oral): 0 % of Control; lipid peroxide formation in LDL, % of Control, 3.0 h (hamster LDL; 75 mg/kg/d oral): 13 % of Control; Conj. Dienes lag ratio (hamster LDL; 75 mg/kg/d oral): 1.81
7 | CC1(C)C=C(CS(=O)(=O)O)c2cc(Cc3ccc4c(c3)C(CS(=O)(=O)O)=CC(C)(C)N4)ccc2N1 [MTDQ-DA] | – | – | – | – | – | – | effects on various lipid parameters (cholesterol fed rabbits; cholesterol fed rabbits): fairly modest effects on various lipid parameters; plaque progression (cholesterol fed rabbits; relative to the cholesterol fed rabbit controls): completely inhibited plaque progression
8 | O=C1O[C@H]([C@@H](O)CO)C(O)=C1O [Na Ascorbate] | – | – | – | 8 % of Control | 91 % of Control | 1.33 | –
9 | CC(C)(Sc1cc(C(C)(C)C)c(O)c(C(C)(C)C)c1)Sc1cc(C(C)(C)C)c(O)c(C(C)(C)C)c1 [PROBUCOL, 4,4'-[(1-methylethylidene)bis(thio)]-bis[2,6-bis(1,1-dimethylethyl)]] | – | – | – | 48 % of Control | 93 % of Control | – | bioavailability [6]: suffers from bioavailability problems
10 | Cc1c(C)c2c(c(C)c1O)CCC(C)(CCCC(C)CCCC(C)CCCC(C)C)O2 (stereo not drawn) [α-Tocopherol] | 1.01 | – | – | 15 % of Control | 36 % of Control | > 3 | –
11 | Cc1c(O)cc2c(c1C)OC(C)(CCCC(C)CCCC(C)CCCC(C)C)CC2 (centres unmarked) [γ-Tocopherol] | 1.17 | – | – | – | – | – | –
12 | CC(C)=CCC/C(C)=C/CC/C(C)=C/CCC1(C)CCc2cc(O)c(C)c(C)c2O1 (centres unmarked) [γ-Tocotrienol] | 1.27 | 29% | 76.3 % of Control | 7 % of Control | 67 % of Control | 1.48 | HMGR Suppression (HMG-CoA reductase [2]): 65% of Control
